# Measurements as given in ChEMBL document CHEMBL5385920, “Discovery of P450-Modified Sesquiterpenoids Levinoids A-D through Global Genome Mining” (J Nat Prod, 2024).
# The source made the active and inactive calls. The calls are words filed in the database; no cut-off is given here.
# Tests used:
# HT-22 [1] = experiment: Neuroprotective activity against glutamate-induced cytotoxicity in HT-22 cells assessed as increase in cell viability at 10 ug/ml measured after 24 hrs in presence of glutamate by CCK8 assay; format: functional, cell-based; conditions: Mus musculus, dose 10.0 µg/ml
# HT-22 [2] = experiment: Neuroprotective activity against glutamate-induced cytotoxicity in HT-22 cells assessed as increase in cell viability measured after 24 hrs in presence of glutamate by CCK8 assay; format: functional, cell-based; conditions: Mus musculus, HT-22, 24 h
# HT-22 [3] = experiment: Neuroprotective activity against glutamate-induced cytotoxicity in HT-22 cells assessed as increase in cell viability at 10 ug/ml measured after 24 hrs in presence of glutamate by CCK8 assay relative to control; format: functional, Mus musculus; conditions: dose 10 µg/ml
SMILES,Activity (HT-22 [1]),EC50 (HT-22 [2]) [µM],Activity (HT-22 [3]) [%]
CC1=CC[C@@H](C(C)C)[C@@]2(O)C=C(C(=O)O)CC[C@@H]12,inactive,–,–
CC1=CC[C@@H](C(C)C)[C@H]2C=C(C(=O)O)CC[C@@H]12,inactive,–,–
CC1=CC[C@@H](C(C)C)[C@H]2C=C(C(=O)O)[C@@H](O)C[C@@H]12,inactive,–,–
CC1=CC[C@@H](C(C)C)[C@H]2C=C(C(=O)O)CC[C@@]12O,–,~21,82
